Laboratory results taken from PubChem BioAssay (NCI).
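Results reflect a 48-hour exposure of cells in 96-well plates to compound at five concentrations. At the GI50, growth is halved. TGI: total growth inhibition.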

Legend:
Test in all cases: growth of human tumour cells (NCI), 48 h
[1] = test system: NCI-H226 lung
[2] = test system: NCI-H522 lung
[3] = test system: HT29 colon
[4] = test system: HS 578T breast
[5] = test system: SR leukemia
[6] = test system: NCI-H23 lung
[7] = test system: LOX IMVI melanoma
[8] = test system: SW-620 colon
[9] = test system: OVCAR-4 ovarian
[10] = test system: COLO 205 colon

Row | SMILES | TGI [1] [µM] | TGI [2] [µM] | TGI [3] [µM] | TGI [4] [µM] | TGI [5] [µM] | TGI [6] [µM] | TGI [7] [µM] | TGI [8] [µM] | TGI [9] [µM] | TGI [10] [µM] | GI50 [1] [µM] | GI50 [2] [µM] | GI50 [3] [µM] | GI50 [4] [µM] | GI50 [5] [µM] | GI50 [6] [µM] | GI50 [7] [µM] | GI50 [8] [µM] | GI50 [9] [µM] | GI50 [10] [µM]
1 | N#Cc1c(C#N)c(-c2ccco2)n(/N=C/c2ccco2)c1N | 66.2 | > 100 | > 100 | 71.2 | > 100 | > 100 | > 100 | > 100 | > 100 | > 100 | – | – | – | – | – | – | – | – | – | –
2 | CN(C)CCCNc1ccc2nnn3c4ccc([N+](=O)[O-])cc4c(=O)c1c23 | 3.02 | 17 | 7.11 | 14.2 | 6.03 | 8.61 | 2.22 | 12.9 | 3.92 | 5.35 | – | – | – | – | – | – | – | – | – | –
3 | O=C(CSCC(=O)N/N=C\c1cc(Br)cc(Br)c1O)N/N=C\c1cc(Br)cc(Br)c1O | 58.2 | 50.9 | > 100 | > 100 | 42 | > 100 | 34.1 | > 100 | > 100 | > 100 | – | – | – | – | – | – | – | – | – | –
4 | O=S(=O)(CC#CCS(=O)(=O)c1ccccc1)c1ccccc1 | 34.7 | 1.63 | 27.7 | > 36.5 | > 100 | 12.2 | 3.32 | > 100 | 3.71 | 5.19 | – | – | – | – | – | – | – | – | – | –
5 | COc1ccc2c(c1)CCC1C2CCC2(C)C1CC[C@@]2(O)CNC(=O)/C=C/c1ccc(O)c(O)c1 (stereo partly specified) | 35.3 | 2.19 | 4.78 | > 100 | 59.7 | 9.14 | 5.57 | > 100 | > 100 | 5.75 | 9.76 | 0.503 | 1.93 | 7.62 | 20.1 | 2.96 | 1.58 | 4.07 | 3.02 | 1.81
6 | Clc1ccc(CCN2CCN(CCCc3ccccc3)CC2)cc1Cl | 38 | 36.7 | 26.9 | 44.9 | 78.8 | 31.6 | 31.5 | 51.6 | 31.4 | 31.6 | – | – | – | – | – | – | – | – | – | –
7 | CN(C)CCCn1c2c(c3ccncc3c1=O)C(=O)c1ccccc1-2 | 2.47 | 11.9 | 13.1 | 14.3 | 11.9 | 9.63 | 4.95 | 13.1 | 8.67 | 14.3 | 0.466 | 1.61 | 0.484 | 1.74 | 0.313 | 1.08 | 0.36 | 0.41 | 1.37 | 0.806
8 | CC(C)Oc1c(O)c2c3c(oc(=O)n3C=CC2c2ccccc2F)c1OC(C)C (stereo unspecified) | > 100 | > 100 | 54.1 | > 100 | 46.1 | > 100 | 33.1 | > 100 | > 100 | 36.6 | – | – | – | – | – | – | – | – | – | –
9 | CC(=O)CC(=O)Nn1c(-c2cccs2)nc2ccc(I)cc2c1=O | > 76.4 | > 87.5 | > 100 | 71.3 | > 100 | > 100 | > 90 | > 100 | > 100 | > 100 | – | – | – | 18.9 | – | – | – | – | – | –
10 | O=C1c2c(ccc3c2CCCC3)CC12Cc1ccccc1C2 | 71.7 | 56.7 | > 57.1 | > 100 | > 27.6 | > 96.2 | 29.4 | > 100 | > 100 | 65.2 | – | – | – | – | – | – | – | – | – | –
11 | C=C(Cl)C(Cl)(CBr)CCC(Cl)C(C)C (stereo unspecified) | > 65.5 | 15.8 | 0.955 | 4.07 | > 54.7 | 50 | 26.2 | 11.8 | 25.4 | 10.3 | – | – | – | – | – | – | – | – | – | –
12 | Fc1ccccc1N=c1oc2ccc(Br)cc2cc1-c1nc2ccccc2[nH]1 | 17.6 | 6.82 | > 54.8 | 13.4 | > 100 | 29.8 | > 31.2 | > 100 | > 37.3 | > 100 | – | – | – | – | – | – | – | – | – | –
13 | COc1ccc(N=Nc2ccc3oc(=O)c(C(=O)Nc4ccc(OC)cc4)cc3c2)cc1 | 32.8 | 75.6 | 55.5 | 89.9 | 87.5 | 43.8 | 18.1 | 66.1 | 75.3 | 43.7 | – | – | – | – | – | – | – | – | – | –
14 | COc1cc(OC)cc(N(C)Cc2cnc3nc(N)nc(N)c3c2C)c1 | > 100 | 43.6 | > 100 | > 100 | > 100 | > 100 | > 100 | > 100 | > 100 | > 100 | – | – | – | – | – | – | – | – | – | –
15 | C[C@H]1C(=O)C2=C[C@H]1CCC(=O)[C@]1(C)CCCC(C)(C)[C@H]1C[C@H]2O | 84.3 | 20.6 | 28.6 | 62.7 | 61.3 | 57.7 | 35.4 | 28.2 | > 100 | 28.4 | – | – | – | – | – | – | – | – | – | –
16 | O=C(C(=O)n1ccc2ccccc21)c1c[nH]c2ccccc12 | > 10 | > 10 | > 10 | > 10 | > 10 | > 10 | > 10 | > 10 | > 10 | > 10 | – | – | – | – | – | – | – | – | – | –
17 | CC(C)(C)OC(=O)N(CCCN)CCCCN(CCCN)C(=O)OC(C)(C)C | > 100 | > 100 | > 100 | > 100 | > 100 | > 100 | > 100 | > 100 | > 100 | > 100 | – | – | – | – | – | – | – | – | – | –

Row | SMILES | TGI [1] [µM] | TGI [2] [µM] | TGI [3] [µM] | TGI [4] [µM] | TGI [5] [µM] | TGI [6] [µM] | TGI [7] [µM] | TGI [8] [µM] | TGI [9] [µM] | TGI [10] [µM] | GI50 [1] [µM] | GI50 [2] [µM] | GI50 [3] [µM] | GI50 [4] [µM] | GI50 [5] [µM] | GI50 [6] [µM] | GI50 [7] [µM] | GI50 [8] [µM] | GI50 [9] [µM] | GI50 [10] [µM]
18 | CCOc1c(OC)cc(CNNc2nccs2)cc1OC | > 100 | > 100 | > 100 | > 100 | > 100 | > 100 | > 100 | > 100 | > 100 | > 100 | – | – | – | – | – | – | – | – | – | –
19 | CN1CCN(c2nc3c(c(=O)n(C)c(=O)n3C)n2C)CC1 | > 100 | > 100 | > 100 | > 100 | > 100 | > 100 | > 100 | > 100 | > 100 | > 100 | – | – | – | – | – | – | – | – | – | –
20 | CCOC(=O)C1C(=O)C=C(c2cc(C)ccc2O)CC1c1cccc(Br)c1 (stereo unspecified) | 37.3 | 35.1 | 37.5 | 34.4 | 25.4 | 46.5 | 32.1 | > 100 | 5.17 | 31.1 | – | – | – | – | – | – | – | – | – | –
21 | O=C(O)CCCCCNC(=O)CCC(CN(CC(=O)OCc1ccccc1)CC(=O)OCc1ccccc1)N(CC(=O)OCc1ccccc1)CC(=O)OCc1ccccc1 (stereo unspecified) | 54.2 | 42.1 | 33.7 | 41.9 | 42 | 35 | 38.3 | 45.3 | 32.5 | 33.7 | – | – | – | – | – | – | – | – | – | –
22 | Nc1cc(N)c2nc(-c3ccccc3)c(Sc3ccc(F)cc3)nc2c1 | 46.4 | > 100 | 45.9 | 62 | > 100 | 39.4 | 41.2 | 49.6 | 55.9 | 47.9 | 19 | > 100 | 17.8 | 27 | 35.2 | 19 | 22.7 | 22.8 | 22.9 | 22.1
23 | O=C1CSC(c2ccc(Cl)cc2)N1c1ccc(-n2c(-c3ccccc3)nc3ccccc3c2=O)cc1 (stereo unspecified) | > 100 | > 100 | > 100 | > 100 | > 100 | > 100 | > 100 | > 100 | 41 | > 100 | – | – | – | – | – | – | – | – | – | –
24 | CC(C)(C)C(=O)C(C#N)C(=O)C(C)(C)C | > 100 | > 100 | > 100 | > 100 | 50 | > 100 | > 100 | > 100 | > 100 | > 100 | – | – | – | – | – | – | – | – | – | –
25 | COc1cccc(C(=O)C(O)c2cccc(OC)c2OC)c1OC (stereo unspecified) | > 100 | > 100 | > 100 | > 100 | > 100 | > 100 | > 100 | > 100 | > 100 | > 100 | – | – | – | – | – | – | – | – | – | –
26 | COc1cc(C2c3cc4c(c(O)c3C(=O)C3CCC(=O)N32)OCO4)cc(OC)c1OC (stereo unspecified) | > 100 | 38.9 | > 100 | > 100 | > 100 | > 100 | > 100 | > 100 | > 100 | > 100 | – | – | – | – | – | – | – | – | – | –
27 | O=C(c1ccccc1)c1cc(-c2ccccc2)c(-c2ccccc2)[nH]c(=O)c1=O | > 100 | 74.4 | > 100 | > 100 | 57.1 | 49.4 | > 100 | > 100 | > 100 | 61.5 | – | – | – | – | – | – | – | – | – | –
28 | COc1cccc2c(NNc3ccc(Cl)cc3)c3ccc([N+](=O)[O-])cc3nc12 | 36.8 | 21.1 | 34.8 | 50.6 | 4 | 33.4 | 36.1 | > 100 | 30.9 | 85 | – | – | – | – | – | – | – | – | – | –
29 | CCC1(CC)C(=O)N(C(=O)c2ccc(Cl)cc2)N(C(=O)c2ccccc2Cl)C1=O | 31.5 | 48.1 | 22.6 | > 100 | > 100 | > 100 | 50.3 | 89.8 | > 100 | > 100 | – | – | – | – | – | – | – | – | – | –
30 | COC(=O)c1cc(CNCCc2c[nH]c3ccccc23)on1 | > 100 | 73.5 | > 100 | > 100 | > 100 | > 100 | > 100 | > 100 | > 83.3 | > 100 | – | – | – | – | – | – | – | – | – | –
31 | CCC(c1ccc(N(C)C)cc1)C1NC(=S)NC1=O (stereo unspecified) | > 100 | > 100 | > 100 | > 100 | > 100 | > 100 | > 100 | > 100 | > 100 | > 100 | – | – | – | – | – | – | – | – | – | –
32 | Cc1ccc(-c2cn3c(nc4ccccc43)c(C)n2)cc1 | > 100 | > 100 | > 100 | > 100 | > 100 | > 100 | > 100 | > 100 | > 100 | > 100 | – | – | – | – | – | – | – | – | – | –
33 | O=C1NC(N2CCCC(CO)C2)=N/C1=C\c1ccc(O)cc1 (stereo unspecified) | > 100 | > 100 | > 100 | > 100 | > 100 | > 100 | > 100 | > 100 | > 100 | > 100 | – | – | – | – | – | – | – | – | – | –
34 | CC(C)NC(=O)OCc1c(COC(=O)NC(C)C)c(-c2ccc[n+](COC(=O)C3CCCCC3)c2)n2c1CCC2 | > 100 | 58 | > 100 | > 100 | > 100 | > 100 | > 100 | > 100 | > 100 | > 100 | – | – | – | – | – | – | – | – | – | –
